Experimental data: patent US5391765A, “Cholesterol lowering/antioxidant nitroxides” (Bristol-Myers Squibb Company, priority 1993, dated 1995)

Key:
[1] = tested on: HMG-CoA reductase; test: HMG-CoA reductase specific activity in normocholesterolemic male chickens; format: in vivo, chicken; details: orally dosed for 4 weeks at 4 mg/kg/day
Description: (§1) Hypocholesterolemic activity was evaluated for the synthetic analogues using γ-tocotrienol as a control in normocholesterolemic chickens. Newborn male chicks (6-10 for each group) were raised on a standard corn-soybean-based control diet for two weeks and then were switched to either control or experimental diets for four weeks. Drug treatment consisted of the addition of test compound to the corn-soybean-based. At the end of the feeding period, all the birds were fasted (about 36 hours) and refed (about 48 hours) to induce cholesterolgenic enzymes prior to sacrifice. The specific activity of HMG-CoA reductase, total serum cholesterol levels, HDL/LDL cholesterol pools, and triglyceride levels (data not shown) were examined (Table II).
(§2) Effects of Compound 3 on Lipid Parameters in Male Chickens
(§3) Orally dosed for 4-weeks at 4 mg/kg/day

[2] = tested on: HepG2 cells; test: Cholesterol biosynthesis, 14C-acetate incorporation in HepG2 cells; format: cell-based; details: Homo sapiens, 4 h incubation, 14C-acetate incorporation over final hour, read-out: Chol. Biosynthesis
Description: (§4) The human hepatoma HepG2 cell culture model was employed to compare the intrinsic activities of the synthetic analogues relative to the tocotrienols. HepG2 cells were incubated with the indicated compounds for 4 hours at 10 μM. Cholesterol synthesis was assayed by ^14 C-acetate incorporation over the final hour of incubation, and HMG-CoA reductase suppression (specific activity) was assayed in the microsomal fraction isolated from parallel cultures at the end of the 4 hour incubation. […] (Table I)

[3] = tested on: HMG-CoA reductase; test: HMG-CoA reductase suppression (specific activity) in microsomal fraction of treated HepG2 cells; format: cell-based, human; details: 10 μM, 4 h incubation
Description: as §4

[4] = tested on: LDL; test: In vitro copper-mediated LDL oxidation, conjugated diene lag time extension; details: 10 μM incubated with rabbit plasma, isolated LDL, added Cu++; lag time ratio treated/control
[5] = Oxidation potential by cyclic voltammetry
[6] = tested on: normocholesterolemic chickens; test: Serum lipids (total, LDL and HDL cholesterol) in normocholesterolemic male chickens; format: in vivo, chicken; details: orally dosed for 4 weeks at 4 mg/kg/day
Description: as §1, §2, §3

[7] = tested on: LDL; details: in vitro and in vivo; cited from earlier work
[8] = background statement; cited from earlier work
[9] = tested on: LDL; details: oral vitamin E supplementation; cited from earlier work

In the case of `CC(C)=CCC/C(C)=C/CC/C(C)=C/CCSCC1=CC(C)(C)N([O])C1(C)C` [Compound 3, 2,5-Dihydro-2,2,5,5-Tetramethyl-3-[[(4,8,12-Trimethyl-3(E),7(E),11-Tridecatrienyl)thio]methyl]-1H-Pyrrole N-Oxide Radical], the HMGR [1] is reported as 56.0 % of Control, the activity at 10 µM [2] is reported as 5% and the “HMGR Suppression” value [3] is reported as 45% of Control. The “LDL Oxd. Inhib. mean lag ratio” value [4] was 0.97, the “Oxd. Potential” value [5] was 0.65 Volts and the HDL-C [6] was 85.8 % of Control. The LDL-C [6] was 52.8 % of Control and the Tot.-C ([6]; total serum cholesterol) was 72.0 % of Control.

`CC(C)=CCC/C(C)=C/CC/C(C)=C/CCCOc1ccc2c(c1)C(C)=CC(C)(C)N2[O]` [Compound 5, 1,2 -Dihydro-2,2,4-Trimethyl-6-[(5,9,13 -Trimethyl-4(E),8(E),12-tetradecatrienyl)oxy]Quinoline N-Oxide Radical] showed an activity at 10 µM [2] of 72%.

In the case of `CC(C)(Sc1cc(C(C)(C)C)c(O)c(C(C)(C)C)c1)Sc1cc(C(C)(C)C)c(O)c(C(C)(C)C)c1` [PROBUCOL, 4,4'-[(1-methylethylidene)bis(thio)]bis[2,6-bis(1,1-dimethylethyl)]], the “oxidative modification of LDL” value [7] is given as “inhibits the oxidative modification of LDL both in vitro and in vivo”, the bioavailability [8] is given as “suffers from bioavailability problems” and the “Oxd. Potential” value [5] is given as 1.12 Volts.

For `Cc1c(C)c2c(c(C)c1O)CCC(C)(CCCC(C)CCCC(C)CCCC(C)C)O2` (stereo not drawn) [α-Tocopherol], the “Oxd. Potential” value [5] was 0.81 Volts.

For `CC(C)=CCC/C(C)=C/CC/C(C)=C/CCC1(C)CCc2cc(O)c(C)c(C)c2O1` (centres unmarked) [γ-Tocotrienol], the activity at 10 µM [2] was 75%, the “HMGR Suppression” value [3] was 65% of Control and the “Oxd. Potential” value [5] was 0.94 Volts. The HDL-C [6] was 87.0 % of Control and the LDL-C [6] was 54.8 % of Control.

For vitamin E, the “antioxidant effectiveness, variation between subjects” value [9] is given as “varied considerably from subject to subject” and the “oxidative resistance of LDL” value [9] is given as “significantly enhanced”.
